Here are results for eight compounds from patent US20180092920A1, “METHOD FOR TREATING TAU PROTEIN-MEDIATED DEGENERATIVE NEURONAL DISEASE” (SEOUL NATIONAL UNIVERSITY R&DB FOUNDATION, priority 2012, published 2018).

Series [1] deals with ALK-mediated tau phosphorylation. The following applies: for ALK-mediated tau phosphorylation: HT22 cells, pGFP-tau + pALK.Fc, 24 hours, dependent on treating amount.
Procedure: In addition, examined was influence of a tau kinase specific inhibitor on ALK-induced tau phosphorylation. […] Thereafter, western bolt was performed using the cell extract. The used antibodies are as follow: PHF-1 (p-Ser396/404; Davies), CP13 (p-S202; Davies), MC-1 (conformational change; Davies), P35/25 (Cell signaling, #2680), TG5 (220-240; generously provided by Dr. Peter Davies, Albert Einstein College of Medicine, NY), -actin (Sigma, A2668), ERK (Cell signaling, #9102), p-ERK (Cell signaling, #9101), GSK3β (BD Biosciences, 610201), and p-GSK3β (p-Ser9; Cell signaling, #9323).
A further series deals with HT22/Tau #1 cells. As to the kind of experiment: Cell death of HT22/Tau #1 cells transfected with ALK.Fc and treated with ALK inhibitor (fluorescence microscopy, cell morphology). The class given is cell-based, mouse. Particulars: 20 nM, 24 hours; decreased from 42% without inhibitor. As for the experimental part:
Then, cell death was determined through a fluorescence microscopy based on cell morphology. Thereafter, cells were extracted and phosphorylation of tau, ERK, CDK5 and ALK was measured through western blot using respective antibodies. The error bar of the graph indicates mean±S.D. (n=4).

For the next series, the system named is TauC3 AD model mice. As to the kind of experiment: Memory tests (Y-MAZE, novel object recognition, passive avoidance) in TauC3 AD model mice. The class given is in vivo, mouse. The following applies: TauC3 mice one-month-old, icv injection 9 pg, after 17 days. The procedure:
TauC3 mice, which were produced by the present inventor, are a tau Alzheimer's mouse model showing early memory defect by expressing tauC3 in a mouse brain, wherein the tauC3 has C-terminal of which 20 amino acids were eliminated by caspase-3 (see Korean Patent No. 1213325). […] After 17 days, memory was measured and compared by Y-MAZE (FIGS. 14A and 14B), novel object recognition (FIG. 14C) and passive avoidance test (FIG. 14D). Consequently, as shown in FIGS. 14A to 14D, memory of mock (a control) in TauC3 TG mice was remarkably declined while memory decline of the ALK inhibitor treating group was suppressed in all three types of behavior tests.

Series [2] concerns tau phosphorylation and signaling proteins in brain. The series can be described thus: Western blot of brain tissue (hippocampus) of TauC3 mice after the behavior tests. The class given is in vivo, mouse. Background: Immunoblotting shows a protein as a band on a membrane.
For a further series, the system named is HT22 cells. Particulars: 25 iM roscovitine, 1 μM U0126, 24 hours.
For series [3], the system named is tau aggregation caused by ALK in HT22 cells. As to the kind of experiment: Tau aggregation in HT22 cells cotransfected with pmALK and pGFP-tau, counted by fluorescence microscopy. The class given is cell-based, mouse. The following applies: pmALK + pGFP-tau, emodin treatment. As for the experimental part: To examine whether mouse ALK increases aggregation and phosphorylation of tau, a pGFP-tau-based functional screening method of which availability was validated in the Experiment Example 1 was used. […] The transfection was performed while amounts of cotransfected pcDNA, pGSK3β CA, and pmALK constructs were increased to 100, 200, and 400 ng. After 24 hours of transfection, aggregation of tau was examined as the number of GFP-positive cells appeared to be aggregated by using a fluorescence microscopy. After then, the cells were extracted to examine phosphorylation of tau by analyzing PHF-1 protein expression with western blot. Subsequently, the present inventor examined aggregation and phosphorylation of tau caused by coexpression of mouse tau and mouse ALK as observed in Experimental Example 1-1 through treatment of an inhibitor of ERK activation and PHF aggregation. Specifically, HT22 cells were cotransfected with pmALK and pGFP-tau constructs, and condensation of cells depending whether emodin was treated or not was counted, wherein emodin is an inhibitor of ERK activation and PHF aggregation. Then, the cells were extracted to examine a phosphorylation level of tau protein by using PHF-1 antibody and Tau-1 antibody.

Series [4] has as its system tau protein phosphorylation. As to the kind of experiment: Western blot of tau phosphorylation (PHF-1, Tau-1 antibodies) in HT22 cells cotransfected with pmALK and pGFP-tau. It is filed as cell-based, mouse. Particulars: pmALK + pGFP-tau, emodin treatment. The procedure: Subsequently, the present inventor examined aggregation and phosphorylation of tau caused by coexpression of mouse tau and mouse ALK as observed in Experimental Example 1-1 through treatment of an inhibitor of ERK activation and PHF aggregation. Specifically, HT22 cells were cotransfected with pmALK and pGFP-tau constructs, and condensation of cells depending whether emodin was treated or not was counted, wherein emodin is an inhibitor of ERK activation and PHF aggregation. Then, the cells were extracted to examine a phosphorylation level of tau protein by using PHF-1 antibody and Tau-1 antibody.

Series [5] deals with tau aggregation caused by ALK in HT22 cells. Particulars: emodin, inhibitor of PHF aggregation; given with literature references; cited from earlier work.
Series [6] deals with HT22/Tau #1 transformed cell line. The series can be described thus: Neurite growth and cell viability in HT22/Tau #1 cells by fluorescence microscopy. The class given is cell-based, mouse. Particulars: 25 μM pretreatment, 24 hours, neuronal cells expressing tau and ALK.Fc. The procedure:
A HT22/Tau #1 transformed cell line was cotransfected with pGFP and pcDNA or pALK after pretreated with 25 μM of roscovitine. Thereafter, the resultant was cultured for 24 hours with/without doxycycline (Dox) treatment. Neurite growth and cell viability were measured through a fluorescence microscopy. Relative ratio of neurites was measured by the number of neuronal cells verses the length of neurites. Consequently, the reduction in neurite growth and the increase in cell death by ALK and tau in neuronal cells expressing tau and ALK.Fc were recovered through the CDK5 inhibitor, roscovitine, treatment (FIG. 9B).

The target of another series is T1, CDK5 (Mus musculus, UniProt P49615).
T1 construct: endogenous in cells; host or cells: HT22 cells cotransfected with pGFP-tau, pALK.Fc and pCDK5 shRNA #1 or #2
As to the kind of experiment: ALK/Tau cell death in HT22 cells with CDK5 shRNA (LIVE/DEAD Viability/Cytotoxicity kit). It is filed as cell-based. The following applies: pGFP-tau + pALK.Fc + shRNA, 48 hours after transfection. As for the experimental part: Moreover, the present inventor observed neurotoxicity of ALK/Tau by using CDK5 shRNA. HT22 cells cotransfected with pGFP-tau and pALK.Fc constructs together with either pCDK5 shRNA #1 or #2. After 48 hours of the transfection, cell death was measured by using LIVE/DEAD Viability/Cytotoxicity kit (Molecular Probes). As the same as above experimental results, it was observed that cell death induced by ALK/Tau was reduced when endogenous CDK5 expression was inhibited using shRNA (FIG. 8D). The used pCDK5 shRNA #1 was characterized by having a polynucleotide having the nucleotide sequence of SEQ ID No. 1 (5′-[…]-3′), and pCDK5 shRNA #2 was characterized by having a polynucleotide having the nucleotide sequence of SEQ ID No. 2 (5′-[…]-3′). […] The results shown in FIGS. 8A to 8D were mean±S.D obtained by triplicate experiments.

T1 sequence (P49615 whole entry): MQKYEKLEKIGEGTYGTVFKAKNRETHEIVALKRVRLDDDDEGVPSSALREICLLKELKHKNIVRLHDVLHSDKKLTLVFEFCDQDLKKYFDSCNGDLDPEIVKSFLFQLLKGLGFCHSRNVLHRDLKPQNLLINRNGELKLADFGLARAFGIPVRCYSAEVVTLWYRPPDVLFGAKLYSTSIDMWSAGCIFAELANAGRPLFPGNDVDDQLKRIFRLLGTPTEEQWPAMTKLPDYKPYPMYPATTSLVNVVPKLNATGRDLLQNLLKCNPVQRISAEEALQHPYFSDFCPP

`[Cl-].[Li+]` [LiCl]: in series [1] (both cells expressing pGFP-tau alone and coexpressing pGFP-tau and pALK.Fc, inhibition levels very similar), the tau phosphorylation result was “inhibited”.
The compound `COc1cc(N2CCC(N3CCN(C)CC3)CC2)ccc1Nc1ncc(Cl)c(Nc2ccccc2S(=O)(=O)C(C)C)n1` [NVP-TAE684] showed a cell death in the series on HT22/Tau #1 cells of 10%.
On to `C[C@@H](Oc1cc(-c2cnn(C3CCNCC3)c2)cnc1N)c1c(Cl)ccc(F)c1Cl` [PF-2341066], for which the “memory decline in all three types of behavior tests” value in the series with TauC3 AD model mice is given as “suppressed”. In [2] (TauC3 mouse brain), the “ERK1/2 activity in brain” value is on record as “reduced”. Also, in series [2] (TauC3 mouse brain (hippocampus)), the “phosphorylation of tau in brain (PHF1, pT231, CP13, 12E8)” value is on record as “significantly inhibited”.
Regarding `N#CC(=C(/N)Sc1ccccc1N)/C(C#N)=C(\N)Sc1ccccc1N` [U0126], the ALK-mediated tau phosphorylation entry in series [1] is recorded as “significantly reduced”. The “ALK.Fc/Tau-mediated neurotoxicity (cell death)” value in the series on HT22 cells is reported as “partially reduced”.
Consider `Cc1cc(O)c2c(c1)C(=O)c1cc(O)cc(O)c1C2=O` [emodin], for which the “tau aggregation caused by ALK” value in series [3] is “inhibited”. Also, in series [4], the “PHF-1 expression (phosphorylated tau)” value is given as “decreasing” and the “tau-1 expression (unphosphorylated tau)” value is reported as “increased”. In series [5], the concentration for half-maximal inhibition (IC50) was 1 to 5 µM.
In the case of `CC[C@H](CO)Nc1nc(NCc2ccccc2)c2ncn(C(C)C)c2n1` [roscovitine], in [6], the “increase in cell death by ALK and tau” value is reported as “recovered”; the “reduction in neurite growth by ALK and tau” value was “recovered”. The ALK-mediated tau phosphorylation result in series [1] is recorded as “significantly reduced”. Moreover, in the series with HT22 cells, the “ALK.Fc/Tau-mediated neurotoxicity (cell death)” value is on record as “significantly reduced”.
Turning to “pCDK5 shRNA #1: CDK5 shRNA having the nucleotide sequence of SEQ ID No. 1 (5′-TGACCAAGCTGCCAGACTA-3′)”, in the series with CDK5, the “cell death induced by ALK/Tau” value is given as “reduced”.
The same measure, in the same setting: under “pCDK5 shRNA #2: CDK5 shRNA having the nucleotide sequence of SEQ ID No. 2 (5′-ACTCCACGTCCATCGACAT-3′)” stands “reduced”.

Broadly, the IC50 is the midpoint of a concentration-inhibition curve.
